Among the data in patent publication US8691828B2, “Thienopyrimidine as CDC7 kinase inhibitors” (Takeda Pharmaceutical Company Limited, priority 2009, dated 2014) are inhibition values, retold here.

The structures appear in SMILES notation.

The target of one experiment is T1, cdc7/Dbf4 (Homo sapiens, UniProt O00311).
T1 construct: Full-length cdc7 co-expressed with full-length Dbf4; purchased Carna Bioscience, Inc. (Kobe, Japan)
Briefly: Determination of cdc7 kinase inhibitory activity (HTRF Transcreener ADP assay). The format is biochemical. To be noted: test compound 1 μM; 1.0 μM ATP, 10 μg/ml MCM2, 0.1 μg/ml cdc7/Dbf4, 90 min at room temperature; read-out: Inhibitory rate (%) at 1 μM. On the procedure: Full-length cdc7 co-expressed with full-length Dbf4 was purchased from Carna Bioscience, Inc. (Kobe, Japan). Homogeneous time-resolved fluorescence (HTRF) Transcreener ADP assay (Cisbio Inc., MA., U.S.A.) was used for detecting cdc7/Dbf4 kinase activity. Reactions were performed in kinase buffer (20 mM HEPES, pH 7.5, 10 mM magnesium acetate, 1 mM dithiothreitol) containing 1.0 μM ATP, 10 μg/ml MCM2, 0.1 μg/ml cdc7/Dbf4 for 90 min at room temperature. Free ADP from the ATP hydrolysis reaction was detected by the monoclonal ADP antibody labeled with Eu^3+-Cryptate, which competes with both native ADP and d2-coupled ADP. The TR-FRET signal was detected by EnVision (PerkinElmer Inc., MA, U.S.A.). Cdc7 kinase inhibitory rate (%) of the test compound was calculated by the following formula: Inhibitory rate(%)=(1−(count of test compound−blank)÷(control−blank))×100
The count of the solution reacted without addition of the compound was used as a “control”, and the count of the solution without the compound and cdc7/Dbf4 was used as a “blank”.
For orientation: TR-FRET usually uses a lanthanide donor and a delayed reading to cut background.

In the next experiment the test system is Colo205 cells. In words: Determination of cell proliferation inhibitory activity (Cell Titer-Glo Luminescent Cell Viability Assay). The format is cell-based. The following applies: Homo sapiens, COLO 205, 72 h, test compound 1 μM, incubation for 3 days, cellular ATP content, read-out: Inhibitory rate (%) at 1 μM. On the procedure:
Cell proliferation was measured by using Cell Titer-Glo Luminescent Cell Viability Assay (Promega, Wis., USA,). The CellTiter-Glo Luminescent Cell Viability Assay is a homogeneous method of determining the number of viable cells in culture based on quantitation of the ATP present, which signals the presence of metabolically active cells. Colo205 cells (American Type Culture Collection) were sown at 3.0×10^3 cells/well to a 96 well microplate and cultured in an incubator (37° C., 5% carbon dioxide). On the following day, 100 μl of a solution of each test compound, which was previously diluted, was added. According to the instruction manual from vender, cellular ATP content of final treatment day was measured. After incubation for 3 days, solution of Cell Titer-Glo Luminescent Cell Viability Assay was added to each well and incubated for approximately 15 min at room temperature. Luminescence of each well was measured by ARVO Light (PerkinElmer Inc., MA, USA). Taking as 100% the ATP content for the none compound treatment control group, the ratio of the residual ATP content for each treatment group was determined.

T1 sequence (O00311 whole entry): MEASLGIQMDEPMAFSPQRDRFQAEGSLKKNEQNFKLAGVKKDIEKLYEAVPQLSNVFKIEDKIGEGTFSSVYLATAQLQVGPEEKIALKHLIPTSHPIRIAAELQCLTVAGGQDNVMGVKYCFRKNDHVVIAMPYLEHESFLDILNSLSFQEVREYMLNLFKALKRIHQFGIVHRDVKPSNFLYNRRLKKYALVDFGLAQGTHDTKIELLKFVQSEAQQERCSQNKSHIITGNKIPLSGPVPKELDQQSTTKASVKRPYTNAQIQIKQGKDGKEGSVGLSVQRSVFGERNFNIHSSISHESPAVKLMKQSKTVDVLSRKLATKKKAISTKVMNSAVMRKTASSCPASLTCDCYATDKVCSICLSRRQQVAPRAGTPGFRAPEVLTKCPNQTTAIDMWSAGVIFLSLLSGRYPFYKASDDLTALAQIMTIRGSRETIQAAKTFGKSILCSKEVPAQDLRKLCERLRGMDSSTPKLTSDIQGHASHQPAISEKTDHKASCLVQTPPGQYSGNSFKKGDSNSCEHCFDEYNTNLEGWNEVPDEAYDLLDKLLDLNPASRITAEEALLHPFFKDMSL
T1 sequence (Q9UBU7 whole entry partner): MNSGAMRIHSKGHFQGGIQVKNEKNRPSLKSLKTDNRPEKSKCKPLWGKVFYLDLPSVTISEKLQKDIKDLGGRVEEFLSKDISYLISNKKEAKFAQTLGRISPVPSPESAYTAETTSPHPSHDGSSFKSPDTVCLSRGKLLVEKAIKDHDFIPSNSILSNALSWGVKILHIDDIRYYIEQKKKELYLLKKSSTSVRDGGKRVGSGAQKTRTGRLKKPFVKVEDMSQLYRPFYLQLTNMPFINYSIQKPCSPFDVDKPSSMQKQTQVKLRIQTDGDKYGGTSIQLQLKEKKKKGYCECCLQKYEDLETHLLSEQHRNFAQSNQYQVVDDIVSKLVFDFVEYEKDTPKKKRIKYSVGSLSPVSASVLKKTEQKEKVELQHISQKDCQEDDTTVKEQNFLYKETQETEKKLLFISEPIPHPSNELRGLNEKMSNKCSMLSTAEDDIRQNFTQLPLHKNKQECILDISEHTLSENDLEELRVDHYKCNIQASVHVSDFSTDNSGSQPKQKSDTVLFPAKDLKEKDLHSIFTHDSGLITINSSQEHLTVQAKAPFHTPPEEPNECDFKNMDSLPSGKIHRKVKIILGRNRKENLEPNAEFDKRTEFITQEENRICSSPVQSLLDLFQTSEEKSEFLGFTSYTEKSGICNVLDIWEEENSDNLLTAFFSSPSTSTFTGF

Regarding `O=C1NC2(CCCCC2)Nc2cc(-c3ccncc3)sc21` [Example 6, 6′-(pyridin-4-yl)-1′H-spiro[cyclohexane-1,2′-thieno[3,2-d]pyrimidin]-4′(3′H)-one], the inhibition at 1 µM on cdc7/Dbf4 is 98.5%.

Consider `O=C1NC2(CCN(C(=O)OCc3ccccc3)CC2)Nc2cc(-c3ccncc3)sc21` [Example 9, benzyl 4′-oxo-6′-(pyridin-4-yl)-3′,4′-dihydro-1′H-spiro[piperidine-4,2′-thieno[3,2-d]pyrimidine]-1-carboxylate], for which, on cdc7/Dbf4, the inhibition at 1 µM was found to be 103%.

`CCN1c2cc(-c3ccncc3)sc2C(=O)NC1(C)C` [Example 15, 1-ethyl-2,2-dimethyl-6-(pyridin-4-yl)-2,3-dihydrothieno[3,2-d]pyrimidin-4(1H)-one]: the inhibition at 1 µM on cdc7/Dbf4 was 97.6%.

Consider `CC1(CC(F)(F)F)NC(=O)c2sc(-c3ccncc3)cc2N1` (stereo not shown) [Example 22, 2-methyl-6-(pyridin-4-yl)-2-(2,2,2-trifluoroethyl)-2,3-dihydrothieno[3,2-d]pyrimidin-4(1H)-one], for which the inhibition at 1 µM at cdc7/Dbf4 stood at 97.1%.

Turning to `CCN1c2cc(-c3ccncc3)sc2C(=O)NC12CCCC2` [Example 27, 1′-ethyl-6′-(pyridin-4-yl)-1′H-spiro [cyclopentane-1,2′-thieno[3,2-d]pyrimidin]-4′(3′H)-one], the inhibition at 1 µM with Colo205 cells is 59.6%; at cdc7/Dbf4 it was 101%.

In the case of `CC1(C)NC(=O)c2sc(-c3cn[nH]c3)cc2N1` [Example 34, 2,2-dimethyl-6-(1H-pyrazol-4-yl)-2,3-dihydrothieno[3,2-d]pyrimidin-4(1H)-one], on cdc7/Dbf4, the inhibition at 1 µM worked out at 104%.

`Cc1[nH]ncc1-c1cc2c(s1)C(=O)NC(C)(CC(F)(F)F)N2C` (stereo not shown) [Example 104, 1,2-dimethyl-6-(5-methyl-1H-pyrazol-4-yl)-2-(2,2,2-trifluoroethyl)-2,3-dihydrothieno[3,2-d]pyrimidin-4(1H)-one]: the inhibition at 1 µM in the experiment on Colo205 cells was 62.9%; on cdc7/Dbf4 it was 101%.

On to `CCN1c2cc(-c3cn[nH]c3C)sc2C(=O)NC1(C)C` [Example 114, 1-ethyl-2,2-dimethyl-6-(5-methyl-1H-pyrazol-4-yl)-2,3-dihydrothieno[3,2-d]pyrimidin-4(1H)-one], for which, in the experiment on Colo205 cells, the inhibition at 1 µM turned out to be 67.4%.

Consider `Cc1[nH]ncc1-c1cc2c(s1)C(=O)NC(C)(C)N2CC(F)F` [Example 115, 1-(2,2-difluoroethyl)-2,2-dimethyl-6-(5-methyl-1H-pyrazol-4-yl)-2,3-dihydrothieno[3,2-d]pyrimidin-4(1H)-one], for which the inhibition at 1 µM in the experiment on Colo205 cells was 66.1%.

For the compound `Cc1[nH]ncc1-c1cc2c(s1)C(=O)NC1(CCCCC1F)N2` (stereo not shown) [Example 122, 2-fluoro-6′-(5-methyl-1H-pyrazol-4-yl)-1′H-spiro [cyclohexane-1,2′-thieno[3,2-d]pyrimidin]-4′(3′H)-one], the figures for the inhibition at 1 µM in the experiment on Colo205 cells and on cdc7/Dbf4 were 48.9% and 91.8%, respectively.
